Source: US11370822B2, “Self-assembling peptide for activating human mast cells” (The Governors of the University of Alberta, priority 2017, dated 2022)
Like-named read-outs stand apart in the source and are kept apart here.

How the values were obtained:
LAD2 cells [1] = test: Cell viability analysis using XTT assay; conditions: for cytotoxicity to LAD2 cells (XTT): PAMP-12 10 μM, 0.5% w/v hydrogel matrices (pure (RADA)4 or 20% w/w (RADA)4-GG-(PAMP-12)), 4 h or 24 h; for effect on LAD2 proliferation (XTT): same treatments, after 24 h incubation
Method: (§2) LAD2 cells were suspended in culture medium (50 μl, 1.0×10^6 cells/ml) and placed on top of 50 μl of hydrogel matrix or culture medium solution. After an 4 h or 24 h incubation, cell viability was measured using a 2,3-bis-(2-methoxy-4-nitro-5-sulfophenyl)-2H-tetrazolium-5-carboxanilide (XTT) proliferation kit (Roche Molecular Biochemicals, Indianapolis, Ind., USA), according to the manufacturer's supplied instructions. To facilitate a uniform distribution of color throughout the hydrogel matrix, 50 μl of DMSO was added into each well prior to analysis.

LAD2 cells [2] = test: β-hex release assay, LAD2 cells on top of hydrogel matrices; assay type: cell-based, human; conditions: for degranulation activity (β-hex release): 30 min
Method: (§1) (RADA)4 (SEQ ID NO: 1) and (RADA)4-GG-(PAMP-12) (SEQ ID NO:2) stock solutions (1.0% w/v) were prepared by dissolving peptide powder in syringe filtered (0.2 μm) Milli-Q water. Peptide stock solutions were sonicated for 30 min to avoid bulk aggregates and reduce viscosity. (RADA)4 peptide solutions with different proportion of (RADA)4-GG-(PAMP-12) (SEQ ID NO: 2) (0, 2.5, 5, 10, 20, 40, 80, 100% w/w) were mixed with 1x PBS (pH 7.4) at a ratio of 1:1 (v/v) to get hydrogel matrices with peptide concentration of 0.5% w/v. Fifty μl of the mixture was placed at the bottom of a 96-well plate or well insert, overnight at 4° C. and washed with HEPES buffer (10 mM, with 0.4% BSA, pH 7.4) or PBS for 3 times.
LAD2 (Laboratory of Allergic Diseases 2) human mast cells were incubated in StemPro-34 SFM medium (Life Technologies, Rockville, Md.) supplemented with 2 mM L-glutamine, 100 I/ml penicillin, 50 μg/ml streptomycin, 100 ng/ml recombinant human SCF (Peprotech, Rocky Hill, N.J.). Cells were maintained at 0.1×10^6 cells/ml at 37° C. and 5% CO2. Cell suspensions were isolated via centrifugation (200 g, 5 min, at room temperature) and media was replaced every 3-7 days.
To evaluate the effect of the matrices on degranulation, 0.25×10^5 LAD2 cells in 50 μl HEPES buffer (10 mM, with 0.4% BSA, pH 7.4) were carefully placed on the top of 50 μl hydrogel matrices, and the β-hex release was measured as described. After 30 min incubation, cell free supernatant and total cells with the matrices were collected by centrifugation (300 g, 5 min) for analysis.

LAD2 cells [3] = test: β-hexosaminidase (β-hex) release assay, peptide solutions; assay type: cell-based, human; conditions: 30 min; for LAD2 degranulation (β-hex release): peptide solutions, various concentrations, compared with PBS; for β-hex release (plateau): solution free peptide, 10 μM
Method: LAD2 (Laboratory of Allergic Diseases 2) human mast cells were incubated in StemPro-34 SFM medium (Life Technologies, Rockville, Md.) supplemented with 2 mM L-glutamine, 100 I/ml penicillin, 50 μg/ml streptomycin, 100 ng/ml recombinant human SCF (Peprotech, Rocky Hill, N.J.). Cells were maintained at 0.1×10^6 cells/ml at 37° C. and 5% CO2. Cell suspensions were isolated via centrifugation (200 g, 5 min, at room temperature) and media was replaced every 3-7 days. For each well, 0.25×10^5 LAD2 cells were washed and resuspended in 90 μl HEPES buffer (10 mM, with 0.4% BSA, pH 7.4), and activated by adding 10 μl peptide solutions (PAMP-12 […], (RADA)4 (SEQ ID NO: 1) and (RADA)4-GG-(PAMP-12) (SEQ ID NO: 2)) in PBS (1×, pH 7.4) for 30 min at 37° C., the final concentrations of peptide are 0, 0.01, 0.1, 1, 10, 20, 50, 100 μM respectively. β-hex release was quantified through analysis of the hydrolysis of p-nitrophenyl N-acetyl-b-D-glucosamide (Sigma Aldrich, Oakville, ON, Canada) in 0.1 M sodium citrate buffer (pH 4.5) for both the supernatant and in total cell lysates solubilized with 0.01% Triton X-100 for 90 min at 37° C. The reaction was stopped by adding glycine buffer (pH 10.7). Read absorbance at 405 nm with reference filter at 620 nm. The percent-age of β-hex released into the supernatant was calculated by the β-hex contents of supernatant and cell lysate.

[4] = AFM morphology of self-assembling peptide nanofiber matrices; assay type: physicochemical
Method: as §1
The morphology of the hydrogel matrices were measured using Dimension 3100 Nanoman Atomic Force Microscopy (AFM, Veeco Metrology, LLC) with tapping mode, tip radius of 8 nm. Matrix solutions used in AFM studies were prepared by 500 times diluted with Mili-Q water. A drop (5 ul) of each solution was placed on freshly cleaved mica substrate then rise with water. The surfaces were air dried overnight at room temperature before being imaged.

TPSAB1 (tryptase) mRNA = test: In vitro activation of mast cells in human skin, ddPCR for TPSAB1 expression; conditions: human skin without epidermis (NSE), 4 h; 10 μM PAMP-12, pure (RADA)4 matrix or matrix with 20% w/w (RADA)4-GG-(PAMP-12); NS average taken as 100
Excerpt: Human skin was harvested from abdominoplasty surgical discard specimens obtained following written informed consent as approved by the University of Alberta research ethics board. All tissue was from healthy non-smokers in their 30s. Human skin was separated from the underlying adipose tissue using a 15 blade scalpel. The epidermis was then removed using a […] dermatome (Integra LifeSciences Corporation, Cincinnati, Ohio) set to 0.25 mm thickness. The deepithelialized dermis was then divided into multiple pieces 1 cm^2 using sharp surgical scissors. Control or active hydrogel matrix (100 μl) was then layered onto the exposed surface of the dermis. […] For some groups, PBS and PAMP-12 PBS solution were used as negative and positive control. Following this, tissue pieces were removed and snap frozen in liquid nitrogen and stored at -80° C. until further processing. […] To obtain the absolute quantity of TPSAB1 transcripts, ddPCR (QX100, Bio-Rad, Hercules, Calif.) was employed using 5 ng of each cDNA sample and ddPCR supermix for the specific probes (Bio-Rad) according to manufacturer's protocols. […] QuantaSoft Software (Bio-Rad) was employed to analyze ddPCR results, and the absolute concentration of TPSAB1 transcripts in each sample determined by ddPCR was divided by the ACTB transcripts and presented as percentage based on normal skin samples (NS average taken as 100).

LAD2 cells [5] = test: Laser-scanning confocal microscopy of LAD2 cells on hydrogel matrices (adhesion, F-actin); assay type: cell-based, human; conditions: 0.5% w/v matrix (pure (RADA)4 or 20% w/w (RADA)4-GG-(PAMP-12))
Method: For each sample, 0.25×10^5 LAD2 cells in 50 μl culture medium were allowed to incubate with 50 μl hydrogel matrix for 30 min at 37° C. After incubation, the medium was disposed, and hydrogel matrix was carefully washed by warm PBS for 3 times to remove non-adherent cells. Hydrogel matrices were then fixed in 3.7% paraformaldehyde in PBS for 20 min at room temperature and 3 times washed in PBS. Cells were permeabilized with 0.1% Triton X-100 in PBS for 5 min, washed in PBS for 3 times, then followed by 3% BSA blocking for 30 min and 3 times washing in PBS. To stain F-actin, samples were incubated with 0.5 μM Phalloidin-FITC (Sigma-Aldrich, USA) for 30 minutes and followed by 3 times washing in PBS. Cell nuclei were stained with 1 ug/mL DAPI (Sigma-Aldrich, USA) in PBS for 30 min. After 3 times washing in PBS, Z-slice images of the matrix with adhered LAD2 cells were collected using Laser Scanning Confocal Microscopy (LSM710, Carl Zeizz AG, Oberkochen, Germany) with an inverted 10× objective.

LAD2 cells [6] = test: β-hex release assay, co-culture with well insert (0.2 μm pore size filter); assay type: cell-based, human; conditions: 30 min
Method: To evaluate the immobilization effect of (RADA)4-GG-(PAMP-12) (SEQ ID NO: 2) in the matrices. As shown in FIG. 6 (A), 0.25×10^5 LAD2 cells in 100 μl HEPES buffer (10 mM, with 0.4% BSA, pH 7.4) were co-incubated with well inserts that contain 50 μl of self-assembling matrix (20% and 100% w/w of (RADA)4-GG-(PAMP-12) (SEQ ID NO: 2)) or PAMP-12 (SEQ ID NO: 3) solution in HEPES buffer (10 mM, with 0.4% BSA, pH 7.4) with the corresponding concentration (0.29 and 1.46 mM respectively). After 30 min incubation, inserts were removed, and the β-hex release was measured as described.

LAD2 cells [7] = system: LAD2 cells
Method: as §2

[8] = pure (RADA)4-GG-(PAMP-12), 0.5% w/v

| nanofiber length (most of the nanofibers) ([4]; 20% and 40% w/w (RADA)4-GG-(PAMP-12) in (RADA)4, 0.5% w/v) | nanofiber length (most of the nanofibers) [4, 8] | nanoparticle size [4, 8] | nanofiber height (AFM cross section) ([4]; pure peptide, 0.5% w/v matrix) | Compound | cytotoxicity to LAD2 cells (XTT) (LAD2 cells [1]) | effect on LAD2 proliferation (XTT) (LAD2 cells [1]) | degranulation activity (β-hex release) (LAD2 cells [2]; 0.5% w/v hydrogel matrix with 20% w/w (RADA)4-GG-(PAMP-12)) | degranulation activity (β-hex release) (LAD2 cells [2]; 0.5% w/v hydrogel matrix with 40% w/w (RADA)4-GG-(PAMP-12)) | degranulation activity versus proportion in matrix (LAD2 cells [2]; (RADA)4-GG-(PAMP-12) from 2.5 to 20% w/w in matrix) | LAD2 degranulation (β-hex release) (LAD2 cells [3]) | β-hex release (plateau) (LAD2 cells [3]) | nanostructure morphology ([4]; pure peptide, 0.5% w/v) | TPSAB1 expression level, normalized to ACTB (TPSAB1 (tryptase) mRNA) | F-actin organization / cell morphology of LAD2 cells (LAD2 cells [5]; 2D imaging) | LAD2 cells associated with matrix post-wash (LAD2 cells [5]; 30 min incubation) | degranulation of LAD2 (β-hex release) (LAD2 cells [6]; 0.5% w/v matrix with 20% w/w (RADA)4-GG-(PAMP-12) in insert) | degranulation of LAD2 (β-hex release) (LAD2 cells [6]; matrix of 100% w/w (RADA)4-GG-(PAMP-12) in insert) | effect on LAD2 proliferation (XTT) (LAD2 cells [7]) | degranulation of LAD2 (β-hex release) (LAD2 cells [6]; 0.29 mM PAMP-12 solution in insert) | degranulation of LAD2 (β-hex release) (LAD2 cells [6]; 1.46 mM PAMP-12 solution in insert) |
| --- | --- | --- | --- | --- | --- | --- | --- | --- | --- | --- | --- | --- | --- | --- | --- | --- | --- | --- | --- | --- |
| – | – | – | – | CC(=O)N[C@@H](CCCNC(=N)N)C(=O)N[C@@H](C)C(=O)N[C@@H](CC(=O)O)C(=O)N[C@@H](C)C(=O)N[C@@H](CCCNC(=N)N)C(=O)N[C@@H](C)C(=O)N[C@@H](CC(=O)O)C(=O)N[C@@H](C)C(=O)N[C@@H](CCCNC(=N)N)C(=O)N[C@@H](C)C(=O)N[C@@H](CC(=O)O)C(=O)N[C@@H](C)C(=O)N[C@@H](CCCNC(=N)N)C(=O)N[C@@H](C)C(=O)N[C@@H](CC(=O)O)C(=O)N[C@@H](C)C(N)=O [(RADA)4, RADARADARADARADA, reference compound] | not cytotoxic | no statistically significant effect | – | – | – | – | – | – | – | – | – | – | – | – | – | – |
| > 500 nm | less than 500 nm | less than 200 nm | 2.5-3.5 nm | CC(=O)N[C@@H](CCCNC(=N)N)C(=O)N[C@@H](C)C(=O)N[C@@H](CC(=O)O)C(=O)N[C@@H](C)C(=O)N[C@@H](CCCNC(=N)N)C(=O)N[C@@H](C)C(=O)N[C@@H](CC(=O)O)C(=O)N[C@@H](C)C(=O)N[C@@H](CCCNC(=N)N)C(=O)N[C@@H](C)C(=O)N[C@@H](CC(=O)O)C(=O)N[C@@H](C)C(=O)N[C@@H](CCCNC(=N)N)C(=O)N[C@@H](C)C(=O)N[C@@H](CC(=O)O)C(=O)N[C@@H](C)C(=O)NCC(=O)NCC(=O)N[C@@H](Cc1ccccc1)C(=O)N[C@@H](CCCNC(=N)N)C(=O)N[C@@H](CCCCN)C(=O)N[C@@H](CCCCN)C(=O)N[C@@H](Cc1c[nH]c2ccccc12)C(=O)N[C@@H](CC(N)=O)C(=O)N[C@@H](CCCCN)C(=O)N[C@@H](Cc1c[nH]c2ccccc12)C(=O)N[C@@H](C)C(=O)N[C@@H](CC(C)C)C(=O)N[C@@H](CO)C(=O)N[C@@H](CCCNC(=N)N)C(N)=O [(RADA)4-GG-(PAMP-12)] | not cytotoxic | no statistically significant effect | 64.2±3.4% | 70.2±7.1% | increased proportionally | induced significant degranulation | ~75% | thick and short nanofibers and even small nanoparticles | 191.1±12.0 percentage | lamellipodia and filopodia were observed | considerable amount of cells retained after washing | 11.1±1.1% | 59.6±3.1% | – | – | – |
| – | – | – | – | CC(=O)N[C@@H](Cc1ccccc1)C(=O)N[C@@H](CCCNC(=N)N)C(=O)N[C@@H](CCCCN)C(=O)N[C@@H](CCCCN)C(=O)N[C@@H](Cc1c[nH]c2ccccc12)C(=O)N[C@@H](CC(N)=O)C(=O)N[C@@H](CCCCN)C(=O)N[C@@H](Cc1c[nH]c2ccccc12)C(=O)N[C@@H](C)C(=O)N[C@@H](CC(C)C)C(=O)N[C@@H](CO)C(=O)N[C@@H](CCCNC(=N)N)C(N)=O [PAMP-12, Ac-FRKKWNKWALSR-CONH2, reference compound] | – | – | – | – | – | induced significant degranulation | ~75% | – | 224.2±9.920 percentage | – | – | – | – | no statistically significant effect | 65.4±2.6% | 69.5±1.2% |
